Among the data in ChEMBL document CHEMBL5036318, “Synthesis and Biological Evaluation of Phosphoester and Phosphorothioate Prodrugs of STING Agonist 3',3'-c-Di(2'F,2'dAMP)” (J Med Chem, 2021) are EC50 and ΔTm values, retold here.

As a reminder, the EC50 is the concentration giving half of the maximal effect. For orientation: ΔTm means the change in melting temperature against a reference sample.

Assay [1] can be described thus: Activation of human STING Q mutant expressed in digitonin treated HEK293T cells co-expressing IRF3-activated ISRE assessed as IRF3 reporter activation by luciferase reporter gene assay. It counts as cell-based. The note with it: HEK-293T. For orientation: In a reporter assay the amount or activity of a reporter protein is the signal.
Assay [2] concerns the target Stimulator of interferon genes protein (Homo sapiens, UniProt Q86WV6, G230A/R293Q/R71H). Nature of the assay: Activation of human STING HAQ mutant expressed in digitonin treated HEK293T cells co-expressing IRF3-activated ISRE assessed as IRF3 reporter activation by luciferase reporter gene assay. It counts as cell-based.
Assay [3] deals with Stimulator of interferon genes protein (Homo sapiens, UniProt Q86WV6, G230A/R293Q). Nature of the assay: Activation of human STING QA mutant expressed in digitonin treated HEK293T cells co-expressing IRF3-activated ISRE assessed as IRF3 reporter activation by luciferase reporter gene assay. The format is cell-based.
The target of assay [4] is T1, Stimulator of interferon genes protein (Homo sapiens, UniProt Q86WV6). Kind of assay: Binding affinity to wild type STING (unknown origin) assessed as change in melting temperature by differential scanning fluorimetry. As to conditions: filed as activator. (In DSF a fluorescence change marks the thermal transition of the protein.)
The target in assay [5] is T1, Stimulator of interferon genes protein. Kind of assay: Binding affinity to human STING expressed in […] cells assessed as change in melting temperature by Cell-based assay. The note with it: HEK293T, filed as activator.
The target is the same in assay [6]. Nature of the assay: Activation of wild-type human STING expressed in digitonin treated HEK293T cells co-expressing IRF3-activated ISRE assessed as IRF3 reporter activation by luciferase reporter gene assay. It counts as cell-based.
For assay [7] the target is unchanged. Nature of the assay: Activation of wild-type human STING expressed in HEK293T cells co-expressing IRF3-activated ISRE assessed as IRF3 reporter activation measured after 7 hrs by luciferase reporter gene assay. It counts as cell-based.
A short description of assay [8]: Induction of TNF-alpha production in healthy human PBMC incubated for 16 hrs. The format is functional, tissue-based.
Assay [9] concerns the target T1, Stimulator of interferon genes protein. Nature of the assay: Activation of wild-type human STING expressed in digitonin treated human THP1-Dual cells co-expressing IRF3-activated ISRE assessed as IRF3 reporter activation measured after 30 mins by luciferase reporter gene assay. It counts as cell-based.
Assay [10] can be described thus: Induction of INF-alpha production in healthy human PBMC incubated for 16 hrs. It counts as functional, tissue-based.
Another assay is described as follows: cells. As to conditions: Homo sapiens, HEK-293T.
Assay [11] deals with T1, Stimulator of interferon genes protein. Kind of assay: Activation of wild-type human STING expressed in human THP1-Dual cells co-expressing IRF3-activated ISRE assessed as IRF3 reporter activation measured after 7 hrs by luciferase reporter gene assay. It counts as cell-based.
Assay [12] has the same target. Kind of assay: Activation of wild-type human STING expressed in HEK293T cells co-expressing IRF3-activated ISRE assessed as IRF3 reporter activation measured after 30 mins by luciferase reporter gene assay. It counts as cell-based.
A short description of assay [13]: Induction of INF-gamma production in healthy human PBMC incubated for 16 hrs. The format is functional, tissue-based.

Each structure is given as a SMILES string.

Stimulator of interferon genes protein (Homo sapiens, UniProt Q86WV6, G230A/R293Q/R71H), sequence (Q86WV6 whole entry R71H/G230A/R293Q): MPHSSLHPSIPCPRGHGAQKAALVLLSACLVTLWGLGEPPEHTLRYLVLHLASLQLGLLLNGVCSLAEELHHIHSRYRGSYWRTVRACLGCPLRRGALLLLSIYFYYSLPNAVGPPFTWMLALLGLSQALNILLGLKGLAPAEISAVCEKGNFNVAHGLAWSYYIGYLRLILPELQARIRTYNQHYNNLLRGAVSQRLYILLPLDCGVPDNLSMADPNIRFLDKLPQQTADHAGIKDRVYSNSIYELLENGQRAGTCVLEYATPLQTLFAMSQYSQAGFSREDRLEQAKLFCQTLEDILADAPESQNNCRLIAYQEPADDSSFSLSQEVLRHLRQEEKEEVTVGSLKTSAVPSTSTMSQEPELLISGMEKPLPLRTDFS
Stimulator of interferon genes protein (Homo sapiens, UniProt Q86WV6, G230A/R293Q), sequence (Q86WV6 whole entry G230A/R293Q): as the sequence (Q86WV6 whole entry R71H/G230A/R293Q) above, with H71R counted along it
T1 sequence (Q86WV6 whole entry): as the sequence (Q86WV6 whole entry R71H/G230A/R293Q) above, with H71R, A230G, Q293R counted along it
Description for cells: Activation of human STING REF mutant expressed in digitonin treated HEK293T cells co-expressing IRF3-activated ISRE assessed as IRF3 reporter activation by luciferase reporter gene assay

Consider `Nc1ncnc2c1ncn2[C@@H]1O[C@@H]2CO[P@@](=O)(S)O[C@H]3[C@@H](F)[C@H](n4cnc5c(N)ncnc54)O[C@@H]3COP(=O)(O)O[C@H]2[C@H]1F`, for which the EC50 in assay [1] is 100 nM; in assay [2], 100 nM; in assay [3] it was 40 nM; in assay [6] it was 40 nM. Also, the shift in melting temperature (ΔTm) in [4] and in assay [5] was 14.7 °C in each case.

Regarding `Nc1ncnc2c1ncn2[C@@H]1O[C@@H]2COP(=O)(O)O[C@H]3[C@@H](F)[C@H](n4cnc5c(N)ncnc54)O[C@@H]3COP(=O)(O)O[C@H]2[C@H]1F`, the EC50 in assay [7] was 7990 nM; in assay [8] it was 12800 nM; in assay [9], 19100 nM; in [10], 51000 nM; in assay [1] it was 140 nM; in “cells” it was 180 nM. The EC50 came to 130 nM in [2]; 20 nM in assay [6]; 1030 nM in [11]; 96500 nM in assay [12]; 8230 nM in [13].

In the case of `Nc1ncnc2c1ncn2[C@@H]1O[C@@H]2COP(=O)(O)O[C@H]3[C@@H](O)[C@H](n4cnc5c(N)ncnc54)O[C@@H]3COP(=O)(O)O[C@H]2[C@H]1O`, the EC50 in [1] stood at 7090 nM; in assay [2], 190 nM; in [3], 170 nM.

For the compound `Nc1ncnc2c1ncn2[C@@H]1O[C@@H]2CO[P@@](=O)(S)O[C@H]3[C@@H](F)[C@H](n4cnc5c(N)ncnc54)O[C@@H]3CO[P@@](=O)(S)O[C@H]2[C@H]1F`, the EC50 in assay [8] stood at 9370 nM; in [9], 3560 nM; in assay [10] it was 38700 nM; in assay [1] it was 80 nM; in the assay “cells”, 130 nM; in assay [2], 80 nM. Moreover, the EC50 in [3] turned out to be 40 nM; in assay [6] it was 40 nM; in assay [11], 360 nM; in assay [12], 7020 nM; in assay [13] it was 6080 nM. In addition, in assay [4], the ΔTm was determined as 15.9 °C.

On to `Nc1ncnc2c1ncn2[C@@H]1O[C@@H]2CO[P@](=O)(S)O[C@H]3[C@@H](F)[C@H](n4cnc5c(N)ncnc54)O[C@@H]3CO[P@](=O)(S)O[C@H]2[C@H]1F`, for which the EC50 in assay [8] was determined as 26800 nM; in assay [9], 12100 nM; in assay [10], 29600 nM; in [1], 4070 nM; in the assay “cells”, 8700 nM; in assay [2], 880 nM. The EC50 came out at 260 nM in assay [3]; 170 nM in assay [6]; 7790 nM in [11]; 2280 nM in [12]; 9870 nM in assay [13]. The ΔTm in assay [4] was 5.5 °C.

Turning to `Nc1ncnc2c1ncn2[C@@H]1O[C@@H]2CO[P@@](=O)(S)O[C@H]3[C@@H](F)[C@H](n4cnc5c(N)ncnc54)O[C@@H]3CO[P@](=O)(S)O[C@H]2[C@H]1F`, the EC50 worked out at 7290 nM in [8]; 3030 nM in [9]; 17700 nM in assay [10]; 210 nM in assay [1]; 360 nM in “cells”; 50 nM in assay [2]. In addition, the EC50 in [6] came out at 20 nM; in assay [11], 310 nM; in assay [12], 520 nM; in [13], 11200 nM. Further, the ΔTm in assay [4] and in assay [5] was 11.2 °C in each case.

Take `Nc1ncnc2c1ncn2[C@@H]1O[C@@H]2CO[P@](=O)(S)O[C@H]3[C@@H](F)[C@H](n4cnc5c(N)ncnc54)O[C@@H]3COP(=O)(O)O[C@H]2[C@H]1F`: the EC50 in [1] was 450 nM; in the assay “cells”, 920 nM; in assay [2], 130 nM; in [3], 70 nM; in [6], 7 nM. Besides, the ΔTm in assay [4] and in assay [5] was 8.9 °C each time.

Take `Nc1nc2c(ncn2[C@@H]2O[C@@H]3COP(=O)(O)O[C@H]4[C@@H](O)[C@H](n5cnc6c(=O)[nH]c(N)nc65)O[C@@H]4COP(=O)(O)O[C@H]3[C@H]2O)c(=O)[nH]1`: the EC50 was above 45000 nM in assay [1] and 8410 nM in “cells”.
